The source of these data is US10370372B2, “Fused pyrimidine compound or salt thereof” (TAIHO PHARMACEUTICAL CO., LTD., priority 2015, dated 2019).

Common to all, as to format: cell-based
One experiment deals with T1, human androgen receptor (Homo sapiens, UniProt P10275).
T1 construct: expressed in transfected cells; host or cells: COS-7 cells (ATCC)
T1 sequence (P10275 1-920): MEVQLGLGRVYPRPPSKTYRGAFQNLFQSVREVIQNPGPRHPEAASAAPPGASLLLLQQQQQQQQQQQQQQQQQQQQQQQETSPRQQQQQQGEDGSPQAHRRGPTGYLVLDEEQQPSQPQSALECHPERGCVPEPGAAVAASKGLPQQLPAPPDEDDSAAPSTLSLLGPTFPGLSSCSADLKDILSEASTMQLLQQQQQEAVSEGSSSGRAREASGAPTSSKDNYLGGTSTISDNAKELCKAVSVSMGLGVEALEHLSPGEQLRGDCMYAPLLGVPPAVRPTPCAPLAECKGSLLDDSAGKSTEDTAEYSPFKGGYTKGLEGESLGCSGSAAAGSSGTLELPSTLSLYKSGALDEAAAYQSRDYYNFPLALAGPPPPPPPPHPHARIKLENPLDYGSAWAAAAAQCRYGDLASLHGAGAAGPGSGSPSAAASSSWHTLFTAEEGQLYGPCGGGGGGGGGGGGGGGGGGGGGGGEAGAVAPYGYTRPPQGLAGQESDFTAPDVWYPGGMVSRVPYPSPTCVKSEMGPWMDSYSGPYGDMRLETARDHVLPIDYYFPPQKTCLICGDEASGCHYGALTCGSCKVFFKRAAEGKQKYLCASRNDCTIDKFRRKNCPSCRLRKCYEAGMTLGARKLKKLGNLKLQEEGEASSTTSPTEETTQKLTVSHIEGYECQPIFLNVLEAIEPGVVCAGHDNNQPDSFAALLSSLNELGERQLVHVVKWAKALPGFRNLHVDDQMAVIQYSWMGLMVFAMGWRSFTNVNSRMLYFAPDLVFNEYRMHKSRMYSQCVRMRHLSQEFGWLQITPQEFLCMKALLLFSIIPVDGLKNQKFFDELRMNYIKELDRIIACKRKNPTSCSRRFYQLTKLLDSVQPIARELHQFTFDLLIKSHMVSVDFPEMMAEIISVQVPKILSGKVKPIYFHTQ
Put plainly: Antagonist activity for AR: MMTV-luc reporter transcription in COS-7 cells transfected with human AR, stimulated with DHT. The procedure:
Antagonist activity for AR was evaluated according to the following method. COS-7 cells (ATCC) were transfected with pMMTV-luc vector (reporter plasmid having, as an androgen response element, […] long terminal repeat) and pEX-hAR vector (human androgen receptor expression vector: which expresses human AR gene under control of CMV promoter) by using Nucleofector (registered trademark) Kit R (Lonza) as a transfection reagent and Amaxa (Lonza). The COS-7 cells obtained after transfection were seeded in a clear bottom 96 well microplate (BD) at 1.5×10^4/well with phenol red free RPMI1640 containing 10% charcoal-treated fetal bovine serum (hereinbelow, DCC-FBS) (hereinbelow, the medium is referred to as an evaluation medium), and then cultured overnight. […] Then, the transcription activity value of the reporter plasmid was measured. The transcription activity was measured by using Bright-Glo™ Luciferase Assay System (Promega).

Experiment [1] deals with Human prostate cancer cells LNCaP. Put plainly: Inhibitory activity on androgen-dependent proliferation of prostate cancer cells. Conditions: 1 nmol/L DHT, 72 hours, Cell Counting Kit-8, read-out: Proliferation inhibition concentration GI50 value. The procedure:
Human prostate cancer cells LNCaP (Non-Patent Literature 5) having […] androgen receptor gene were seeded in a clear bottom 96 well microplate (BD) at 4.0×10^3/well with phenol red free RPMI1640 containing 5% DCC-FBS (hereinbelow, the medium is referred to as an evaluation medium), and then cultured overnight. […] Then, the number of viable cells was measured. The number of viable cells was measured by using Cell Counting Kit-8 (DOJINDO LABORATORIES).
(In general: Tetrazolium dyes change colour on reduction, which living cells bring about.)

For experiment [2], the system named is AR positive human prostate cancer cells VCaP. Put plainly: Agonist activity for AR: cell proliferation rate of VCaP cells. Conditions: 5-10000 nmol/L, 72 hours, relative to evaluation medium only, more than 10% = agonist activity. The procedure:
Then, the number of viable cells was measured (test group). As a control, the cells were cultured after being added with the evaluation medium only, and the number of viable cells was measured (control group). The number of viable cells was measured by using CellTiter-Glo™ Luminescent Cell Viability Assay (Promega). From the measured number of viable cells, cell proliferation rate with respect to the compound of Examples or the compound of Comparative Examples was calculated based on the number of viable cells measured in the case of using the evaluation medium only. Cell proliferation rate (%)=(Number of viable cells in test group−Number of viable cells in control group)/(Number of viable cells in control group)×100
By considering an error in the number of viable cells measured in the case of using the evaluation medium only, when the cell proliferation rate was more than 10% at any concentration of the 8 concentrations which had been evaluated, it was determined to have an agonist activity for AR.

Another experiment has as its system AR expression in LNCaP. Put plainly: Activity of reducing expression level of androgen receptor (Western blotting in LNCaP). Conditions: Homo sapiens, read-out: AR expression reducing activity. The procedure:
AR positive human prostate cancer cells LNCaP were seeded in a 6 well microplate (BD) at 3.5×10^5/well with RPMI1640 containing 5% FBS (hereinbelow, the medium is referred to as an evaluation medium), and then cultured overnight. […] After culture for 48 hours, the medium was removed and the cells were washed with PBS and added with 0.1 mL of Lysis buffer (M-PER added with Protease Inhibitor Cocktail), followed by keeping at 4° C. for 20 minutes. After cell lysis, the cell solution was centrifuged to recover the supernatant as cell lysate. […] The antibody-reacting band (anti AR receptor) was quantified by LAS Imaging System (FUJIFILM) using Super Signal West Dura Substrate (Thermo Scientific) as a detection reagent.
When the AR expression reducing activity is 50% or more, it is described as “reduced”.

Setting [3] is: COS-7 cells with pMMTV-luc and pEX-hAR, 1 nmol/L DHT, 24 hours, read-out: AR antagonist IC50.
The mark [4] stands for this setting: 10000 nmol/L, 48 hours, vs evaluation medium control.

Each structure is given as a SMILES string. Where two headings read alike, the source gives them in different places. A value given as a limit tells only on which side of the number the result lay.

By IC50 is commonly meant the concentration needed to halve the response being measured. Regarding `COc1ccc(Nc2nc(C)nc3c2CCN(c2ccc(C#N)c(C(F)(F)F)c2)C3)cc1` [Example 48, 4-(4-((4-Methoxyphenyl)amino)-2-methyl-5,6-dihydropyrido[3,4-d]pyrimidin-7(8H)-yl)-2-(trifluoromethyl)benzonitrile], the IC50 on human androgen receptor (setting [3]) came to 1000 nM. Also, the GI50 in experiment [1] was found to be 610 nM. In experiment [2], the “Cell proliferation rate (%)” value was −1.6%. Besides, the inhibition at 10 µM with AR expression in LNCaP (48 h) is above 50%.

On to `N#Cc1ccc(N2CCc3c(ncnc3Nc3ccc(C(=O)N4CCCCCC4)cn3)C2)cc1C(F)(F)F` [Example 6, 4-(4-((5-(azepane-1-carbonyl)pyridin-2-yl)amino)-5,6-dihydropyrido[3,4-d]pyrimidin-7(8H)-yl)-2-(trifluoromethyl)benzonitrile], for which inhibition against human androgen receptor was half-maximal at 130 nM (IC50). The GI50 in experiment [1] stood at 55 nM. Besides, the “Cell proliferation rate (%)” value in experiment [2] was −1.0%. Also, in the experiment with AR expression in LNCaP (48 h), the inhibition at 10 µM is above 50%.

For `C#CCNC(=O)c1ccc(Nc2ncnc3c2CCN(c2ccc(C#N)c(C(F)(F)F)c2)C3)nn1` [Example 11, 6-((7-(4-cyano-3-(trifluoromethyl)phenyl)-5,6,7,8-tetrahydropyrido[3,4-d]pyrimidin-4-yl)amino)-N-(prop-2-yn-1-yl)pyridazine-3-carboxamide], on human androgen receptor, it took 25 nM to reach half-maximal inhibition (IC50). Also, the GI50 in experiment [1] came to 950 nM. Further, in experiment [2], the “Cell proliferation rate (%)” value is given as 4.9%. Moreover, the inhibition at 10 µM with AR expression in LNCaP (48 h) is above 50%.

On human androgen receptor, `CCNC(=O)c1ccc(Nc2ncnc3c2CCN(c2ccc(C#N)c(C(F)(F)F)c2)C3)nc1` [Example 5, 6-((7-(4-cyano-3-(trifluoromethyl)phenyl)-5,6,7,8-tetrahydropyrido[3,4-d]pyrimidin-4-yl)amino)-N-ethylnicotinamide] gave an IC50 of 100 nM. Further, the GI50 in experiment [1] worked out at 120 nM. Besides, in experiment [2], the “Cell proliferation rate (%)” value is recorded as −1.9%. Moreover, the inhibition at 10 µM in the experiment on AR expression in LNCaP (48 h) is above 50%.

Regarding `CC(C)(O)c1ccc(Nc2ncnc3c2CCN(c2ccc([N+](=O)[O-])c(Cl)c2)C3)nc1` [Example 13, 2-(6-((7-(3-Chloro-4-nitrophenyl)-5,6,7,8-tetrahydropyrido[3,4-d]pyrimidin-4-yl)amino)pyridin-3-yl)propan-2-ol], the IC50 on human androgen receptor (setting [3]) is 32 nM. Besides, the GI50 in experiment [1] was 300 nM. The “Cell proliferation rate (%)” value in experiment [2] came out at 7.3%. Further, in the experiment with AR expression in LNCaP (setting [4]), the inhibition at 10 µM was above 50%.

Consider `N#Cc1ccc(N2CCc3c(ncnc3Nc3ccc4c(c3)CNCC4)C2)cc1Cl` [Example 37, 2-Chloro-4-(4-((1,2,3,4-tetrahydroisoquinolin-7-yl)amino)-5,6-dihydropyrido[3,4-d]pyrimidin-7(8H)-yl)benzonitrile], for which, on human androgen receptor, the IC50 amounted to 690 nM. The GI50 in experiment [1] turned out to be 990 nM. Besides, in experiment [2], the “Cell proliferation rate (%)” value was 4.6%. Besides, the inhibition at 10 µM in the experiment with AR expression in LNCaP (48 h) was above 50%.

In the case of `CC(C)Oc1cc(N2CCc3c(ncnc3Nc3ccc(C(C)(C)O)cn3)C2)ccc1[N+](=O)[O-]` [Example 19, 2-(6-((7-(3-isopropoxy-4-nitrophenyl)-5,6,7,8-tetrahydropyrido[3,4-d]pyrimidin-4-yl)amino)pyridin-3-yl)propan-2-ol], at human androgen receptor (setting [3]), the IC50 turned out to be 1300 nM. Besides, in experiment [1], the GI50 worked out at 220 nM. Further, the “Cell proliferation rate (%)” value in experiment [2] is listed as 7.8%. Moreover, the inhibition at 10 µM in the experiment with AR expression in LNCaP (setting [4]) is above 50%.

As for `CC(C)(C)ONC(=O)c1ccc(Nc2ncnc3c2CCN(c2ccc(C#N)c(C(F)(F)F)c2)C3)nc1` [Example 7, N-(tert-butoxy)-6-((7-(4-cyano-3-(trifluoromethyl)phenyl)-5,6,7,8-tetrahydropyrido[3,4-d]pyrimidin-4-yl)amino)nicotinamide], the IC50 at human androgen receptor (setting [3]) came to 380 nM. Besides, the GI50 in experiment [1] amounted to 180 nM. Besides, the “Cell proliferation rate (%)” value in experiment [2] is on record as 0.90%. Also, in the experiment on AR expression in LNCaP (48 h), the inhibition at 10 µM is above 50%.

In turn, `CC(C)(O)c1ccc(Nc2ncnc3c2CCN(c2ccc([N+](=O)[O-])c(Br)c2)C3)nc1` [Example 17, 2-(6-((7-(3-bromo-4-nitrophenyl)-5,6,7,8-tetrahydropyrido[3,4-d]pyrimidin-4-yl)amino)pyridin-3-yl)propan-2-ol] yielded an IC50 on human androgen receptor of 30 nM. For the same compound, the GI50 in experiment [1] amounted to 1200 nM. In experiment [2], the “Cell proliferation rate (%)” value was 9.7%. In the experiment with AR expression in LNCaP (48 h), the inhibition at 10 µM was above 50%.

For the compound `CC(C)(C)OC(=O)N1CCc2ccc(Nc3ncnc4c3CCN(c3ccc(C#N)c(Cl)c3)C4)cc2C1` [Example 36, tert-Butyl 7-((7-(3-chloro-4-cyanophenyl)-5,6,7,8-tetrahydropyrido[3,4-d]pyrimidin-4-yl)amino)-3,4-dihydroisoquinoline-2(1H)-carboxylate], on human androgen receptor (setting [3]), the IC50 worked out at 180 nM. Besides, in experiment [1], the GI50 was found to be 150 nM. Also, the “Cell proliferation rate (%)” value in experiment [2] is on record as 4.9%. Moreover, the inhibition at 10 µM with AR expression in LNCaP (48 h) is above 50%.

Take `Cc1cc(N2CCc3c(ncnc3Nc3ccc(C(C)(C)O)cn3)C2)ccc1[N+](=O)[O-]` [Example 16, 2-(6-((7-(3-methyl-4-nitrophenyl)-5,6,7,8-tetrahydropyrido[3,4-d]pyrimidin-4-yl)amino)pyridin-3-yl)propan-2-ol]: the IC50 on human androgen receptor (setting [3]) is 70 nM. In experiment [1], the GI50 came out at 230 nM. For the same compound, the “Cell proliferation rate (%)” value in experiment [2] is recorded as −1.8%. Moreover, the inhibition at 10 µM with AR expression in LNCaP (setting [4]) is above 50%.

On human androgen receptor, `CC(=O)N1CCN(CCCOc2ccc(Nc3ncnc4c3CCN(c3ccc(C#N)c(Cl)c3)C4)cc2C(F)(F)F)CC1` [Example 43, 4-(4-((4-(3-(4-acetylpiperazin-1-yl)propoxy)-3-(trifluoromethyl)phenyl)amino)-5,6-dihydropyrido[3,4-d]pyrimidin-7(8H)-yl)-2-chlorobenzonitrile] showed an IC50 of 300 nM. Further, the GI50 in experiment [1] worked out at 380 nM. For the same compound, the “Cell proliferation rate (%)” value in experiment [2] came to 8.4%. The inhibition at 10 µM in the experiment on AR expression in LNCaP (48 h) is above 50%.

Consider `COc1cc(N2CCc3c(ncnc3Nc3ccc(C(C)(C)O)cn3)C2)ccc1C#N` [Example 23, 4-(4-((5-(2-Hydroxypropan-2-yl)pyridin-2-yl)amino)-5,6-dihydropyrido[3,4-d]pyrimidin-7(8H)-yl)-2-methoxybenzonitrile], for which the IC50 on human androgen receptor (setting [3]) worked out at 19 nM. In addition, in experiment [1], the GI50 came out at 2600 nM. The “Cell proliferation rate (%)” value in experiment [2] is 2.3%. In addition, in the experiment with AR expression in LNCaP (setting [4]), the inhibition at 10 µM was above 50%.
